From patent US20110195900A1, “PEPTIDIC PTH RECEPTOR AGONISTS” (FERRING B.V., priority 2008, published 2011)
Non-standard residues stand in square brackets, D forms with d. Residues, ends and D or L forms follow the SMILES beside them. 1Nal = N[C@@H](Cc1cccc2ccccc12)C(=O)O; β3hI = CC[C@H](C)[C@H](N)CC(=O)O; β3hF = N[C@H](CC(=O)O)Cc1ccccc1; Nle = CCCC[C@H](N)C(=O)O

Biological target: T1, human PTH-1 receptor (Homo sapiens, UniProt Q03431)
T1 construct: expressed in transfected cells; host or cells: HEK-293
T1 sequence (Q03431 27-593): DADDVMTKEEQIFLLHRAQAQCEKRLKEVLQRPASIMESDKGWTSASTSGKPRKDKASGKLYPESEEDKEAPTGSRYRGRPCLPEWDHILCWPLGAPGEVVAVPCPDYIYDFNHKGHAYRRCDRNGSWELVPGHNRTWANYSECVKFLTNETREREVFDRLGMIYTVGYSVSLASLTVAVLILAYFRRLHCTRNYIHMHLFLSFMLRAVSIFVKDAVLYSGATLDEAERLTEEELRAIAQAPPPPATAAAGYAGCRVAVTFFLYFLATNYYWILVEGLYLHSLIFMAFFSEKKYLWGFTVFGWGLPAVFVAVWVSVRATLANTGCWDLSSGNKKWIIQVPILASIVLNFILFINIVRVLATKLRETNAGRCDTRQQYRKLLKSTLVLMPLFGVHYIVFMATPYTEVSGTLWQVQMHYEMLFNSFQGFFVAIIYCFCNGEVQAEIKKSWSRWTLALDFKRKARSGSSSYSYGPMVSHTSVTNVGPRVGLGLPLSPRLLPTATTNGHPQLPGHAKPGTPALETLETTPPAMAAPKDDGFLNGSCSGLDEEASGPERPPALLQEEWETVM
Assay: Reporter gene assay (CRE-luciferase) for agonist activity in transiently transfected HEK-293 cells
Assay type: cell-based
Settings: for hPTHR-2/hPTHR-1: Table 3, ratio of EC50 values, selectivity for hPTH-1 receptor over hPTH-2 receptor
Description: Agonist activity of compounds on the human PTH-1 receptor was determined in a reporter gene assay by transiently transfecting HEK-293 cells with plasmids encoding human PTH-1 receptor under control of the SV40 promoter and a luciferase reporter gene under control of cAMP responsive elements (CRE). See Himmler et al, J. Recept. Res. 13 (1993) 79-94, for further guidance on this assay. Transfected cells were exposed to serial dilutions of compounds for 4-5 hours followed by lysis of cells, determination of luciferase activity, and determination of compound efficacies and EC50 values through non-linear regression.
PTH (1-34) was used as an internal control in each experiment and compounds were tested in at least three independent experiments. To determine selectivity, compounds were tested in luciferase-based transcriptional reporter gene assays expressing the human PTH-2 receptor.

CCCC[C@H](NC(=O)[C@H](CC(C)C)NC(=O)[C@H](CCC(N)=O)NC(=O)[C@@H](NC(=O)[C@H](CCC(=O)O)NC(=O)[C@H](CO)NC(=O)[C@@H](NC(=O)[C@@H](N)CO)C(C)C)[C@@H](C)CC)C(=O)N[C@@H](Cc1c[nH]cn1)C(=O)N[C@@H](CC(N)=O)C(=O)N[C@@H](CC(C)C)C(=O)NCC(=O)N[C@@H](CCCCN)C(=O)N[C@@H](Cc1c[nH]cn1)C(=O)N[C@@H](CC(C)C)C(=O)N[C@@H](CC(N)=O)C(=O)N[C@@H](CO)C(=O)N[C@H](CC(=O)N[C@@H](CCC(=O)O)C(=O)N[C@@H](CCCNC(=N)N)C(=O)N[C@H](C(=O)N[C@@H](CCC(=O)O)C(=O)N[C@@H](Cc1cccc2ccccc12)C(=O)N[C@@H](CC(C)C)C(=O)N[C@@H](CCCNC(=N)N)C(=O)N[C@@H](CCCCN)C(=O)N[C@@H](CC(C)C)C(=O)N[C@@H](CC(C)C)C(=O)N[C@@H](CCC(N)=O)C(=O)N[C@@H](CO)C(=O)N[C@H](C(=O)N[C@@H](Cc1c[nH]cn1)C(=O)N[C@@H](CC(N)=O)C(=O)N[C@@H](Cc1ccccc1)C(N)=O)C(C)C)C(C)C)[C@@H](C)CC [SEQ ID NO: 26, [Nle^8, β-hIle^18,1-Nal^23, Leu^27, Ser^30] hPTH (1-34)-NH2] (H-SVSEIQL[Nle]HNLGKHLNS[β3hI]ERVE[1Nal]LRKLLQSVHNF-NH2)
EC50: 0.19 nM | hPTHR-2/hPTHR-1: 98

CCCC[C@H](NC(=O)[C@H](CC(C)C)NC(=O)[C@H](CCC(N)=O)NC(=O)[C@@H](NC(=O)[C@H](CCC(=O)O)NC(=O)[C@H](CO)NC(=O)[C@@H](NC(=O)[C@@H](N)CO)C(C)C)[C@@H](C)CC)C(=O)N[C@@H](Cc1c[nH]cn1)C(=O)N[C@@H](CC(N)=O)C(=O)N[C@@H](CC(C)C)C(=O)NCC(=O)N[C@@H](CCCCN)C(=O)N[C@@H](Cc1c[nH]cn1)C(=O)N[C@@H](CC(C)C)C(=O)N[C@@H](CC(N)=O)C(=O)N[C@@H](CO)C(=O)N[C@H](CC(=O)N[C@@H](CCC(=O)O)C(=O)N[C@@H](CCCNC(=N)N)C(=O)N[C@H](C(=O)N[C@@H](CCC(=O)O)C(=O)N[C@@H](Cc1cccc2ccccc12)C(=O)N[C@@H](CC(C)C)C(=O)N[C@@H](CCCNC(=N)N)C(=O)N[C@@H](CCCCN)C(=O)N[C@@H](CC(C)C)C(=O)N[C@@H](CC(C)C)C(=O)N[C@@H](CCC(N)=O)C(=O)N[C@@H](CC(=O)O)C(=O)N[C@H](C(=O)O)C(C)C)C(C)C)[C@@H](C)CC [SEQ ID NO: 10, [Nle^8, β-hIle^18,1-Nal^23, Leu^27] hPTH (1-31)-OH] (H-SVSEIQL[Nle]HNLGKHLNS[β3hI]ERVE[1Nal]LRKLLQDV-OH)
EC50: 0.09 nM | hPTHR-2/hPTHR-1: 811

CCCC[C@H](NC(=O)[C@H](CC(C)C)NC(=O)[C@H](CCC(N)=O)NC(=O)[C@@H](NC(=O)[C@H](CCC(=O)O)NC(=O)[C@H](CO)NC(=O)[C@@H](NC(=O)[C@@H](N)CO)C(C)C)[C@@H](C)CC)C(=O)N[C@@H](Cc1c[nH]cn1)C(=O)N[C@@H](CC(N)=O)C(=O)N[C@@H](CC(C)C)C(=O)NCC(=O)N[C@@H](CCCCN)C(=O)N[C@@H](Cc1c[nH]cn1)C(=O)N[C@@H](CC(C)C)C(=O)N[C@@H](CO)C(=O)N[C@@H](CO)C(=O)N[C@H](CC(=O)N[C@@H](CCC(=O)O)C(=O)N[C@@H](CCCNC(=N)N)C(=O)N[C@H](C(=O)N[C@@H](CCC(=O)O)C(=O)N[C@@H](Cc1cccc2ccccc12)C(=O)N[C@@H](CC(C)C)C(=O)N[C@@H](CCCNC(=N)N)C(=O)N[C@@H](CCCCN)C(=O)N[C@@H](CC(C)C)C(=O)N[C@@H](CC(C)C)C(=O)N[C@@H](CCC(N)=O)C(=O)N[C@@H](CC(=O)O)C(=O)N[C@H](C(=O)N[C@@H](Cc1c[nH]cn1)C(=O)N[C@@H](CC(N)=O)C(=O)N[C@@H](Cc1ccccc1)C(N)=O)C(C)C)C(C)C)[C@@H](C)CC [SEQ ID NO: 22, [Nle^8, Ser^16, β-hIle^18,1-Nal^23, Leu^27] hPTH (1-34)-NH2] (H-SVSEIQL[Nle]HNLGKHLSS[β3hI]ERVE[1Nal]LRKLLQDVHNF-NH2)
EC50: 0.19 nM | hPTHR-2/hPTHR-1: 101

CCCC[C@H](NC(=O)[C@H](CC(C)C)NC(=O)[C@H](CCC(N)=O)NC(=O)[C@@H](NC(=O)[C@H](CCC(=O)O)NC(=O)[C@H](CO)NC(=O)[C@@H](NC(=O)[C@@H](N)CO)C(C)C)[C@@H](C)CC)C(=O)N[C@@H](Cc1c[nH]cn1)C(=O)N[C@@H](CC(N)=O)C(=O)N[C@@H](CC(C)C)C(=O)NCC(=O)N[C@@H](CCCCN)C(=O)N[C@@H](Cc1c[nH]cn1)C(=O)N[C@@H](CC(C)C)C(=O)N[C@@H](CCC(=O)O)C(=O)N[C@@H](CO)C(=O)N[C@H](CC(=O)N[C@@H](CCC(=O)O)C(=O)N[C@@H](CCCNC(=N)N)C(=O)N[C@H](C(=O)N[C@@H](CCC(=O)O)C(=O)N[C@@H](Cc1cccc2ccccc12)C(=O)N[C@@H](CC(C)C)C(=O)N[C@@H](CCCNC(=N)N)C(=O)N[C@@H](CCCCN)C(=O)N[C@@H](CC(C)C)C(=O)N[C@@H](CC(C)C)C(=O)N[C@@H](CCC(N)=O)C(=O)N[C@@H](CC(=O)O)C(=O)N[C@H](C(=O)N[C@@H](Cc1c[nH]cn1)C(=O)N[C@@H](CC(N)=O)C(=O)N[C@@H](Cc1ccccc1)C(N)=O)C(C)C)C(C)C)[C@@H](C)CC [SEQ ID NO: 21, [Nle^8, Glu^16, β-hIle^18,1-Nal^23, Leu^27] hPTH (1-34)-NH2] (H-SVSEIQL[Nle]HNLGKHLES[β3hI]ERVE[1Nal]LRKLLQDVHNF-NH2)
hPTHR-2/hPTHR-1: 234

CCCC[C@H](NC(=O)[C@H](CC(C)C)NC(=O)[C@H](CCC(N)=O)NC(=O)[C@@H](NC(=O)[C@H](CCC(=O)O)NC(=O)[C@H](CO)NC(=O)[C@@H](NC(=O)[C@@H](N)CO)C(C)C)[C@@H](C)CC)C(=O)N[C@@H](Cc1c[nH]cn1)C(=O)N[C@@H](CC(N)=O)C(=O)N[C@@H](CC(C)C)C(=O)NCC(=O)N[C@@H](CCCCN)C(=O)N[C@@H](Cc1c[nH]cn1)C(=O)N[C@@H](CC(C)C)C(=O)N[C@@H](CC(N)=O)C(=O)N[C@@H](CO)C(=O)N[C@H](CC(=O)N[C@@H](CCC(=O)O)C(=O)N[C@@H](CCCNC(=N)N)C(=O)N[C@H](C(=O)N[C@@H](CCC(=O)O)C(=O)N[C@@H](Cc1cccc2ccccc12)C(=O)N[C@@H](CC(C)C)C(=O)N[C@@H](CCCNC(=N)N)C(=O)N[C@@H](CCCCN)C(=O)N[C@@H](CC(C)C)C(=O)N[C@@H](CC(C)C)C(=O)N[C@@H](CCC(N)=O)C(=O)N[C@@H](CC(=O)O)C(=O)N[C@H](C(=O)N[C@@H](Cc1c[nH]cn1)C(=O)N[C@@H](CC(N)=O)C(=O)N[C@@H](Cc1ccccc1)C(N)=O)C(C)C)C(C)C)Cc1ccccc1 [SEQ ID NO: 46, [Nle^8, β-hPhe^18,1-Nal^23, Leu^27] hPTH (1-34)-NH2] (H-SVSEIQL[Nle]HNLGKHLNS[β3hF]ERVE[1Nal]LRKLLQDVHNF-NH2)
EC50: 0.11 nM | hPTHR-2/hPTHR-1: 94

CCCC[C@H](NC(=O)[C@H](CC(C)C)NC(=O)[C@H](CCC(N)=O)NC(=O)[C@@H](NC(=O)[C@H](CCC(=O)O)NC(=O)[C@H](CO)NC(=O)[C@@H](NC(=O)[C@@H](N)CO)C(C)C)[C@@H](C)CC)C(=O)N[C@@H](Cc1c[nH]cn1)C(=O)N[C@@H](CO)C(=O)N[C@@H](CC(C)C)C(=O)NCC(=O)N[C@@H](CCCCN)C(=O)N[C@@H](Cc1c[nH]cn1)C(=O)N[C@@H](CC(C)C)C(=O)N[C@@H](CCCCN)C(=O)N[C@@H](CO)C(=O)N[C@H](CC(=O)N[C@@H](CCC(=O)O)C(=O)N[C@@H](CCCNC(=N)N)C(=O)N[C@H](C(=O)N[C@@H](CCC(=O)O)C(=O)N[C@@H](Cc1cccc2ccccc12)C(=O)N[C@@H](CC(C)C)C(=O)N[C@@H](CCCNC(=N)N)C(=O)N[C@@H](CCCCN)C(=O)N[C@@H](CC(C)C)C(=O)N[C@@H](CC(C)C)C(=O)N[C@@H](CCC(N)=O)C(=O)N[C@@H](CCCNC(=N)N)C(=O)N[C@H](C(=O)N[C@@H](Cc1c[nH]cn1)C(=O)N[C@@H](CCC(=O)O)C(=O)N[C@@H](Cc1ccccc1)C(N)=O)C(C)C)C(C)C)[C@@H](C)CC [SEQ ID NO: 40, [Nle^8, Ser^10, Lys^16, β-hIle^18,1-Nal^23, Leu^27, Arg^30, Glu^33] hPTH(1-34)-NH2] (H-SVSEIQL[Nle]HSLGKHLKS[β3hI]ERVE[1Nal]LRKLLQRVHEF-NH2)
EC50: 0.12 nM | hPTHR-2/hPTHR-1: 69
